Experimental data reported in ChEMBL document CHEMBL3044667, “Insecticidal activities of crude extracts and phospholipids from Chenopodium ficifolium against melon and cotton aphid, Aphis gossypii” (2010).
The source made the active and inactive calls. The calls are words filed in the database; no cut-off is given here.

Columns and labels:
Aphis gossypii [1] = experiment: Insecticidal activity against Aphis gossypii (cotton aphid) infested fourth-leaf stage cucumber seedlings followed by compound exposure at 1000 ug/ml assessed as induction of insect death on leaves after 48 hr post compound treatment relative to untreated control; format: functional, organism-based
Aphis gossypii [2] = experiment: Insecticidal activity against Aphis gossypii (cotton aphid) infested fourth-leaf stage cucumber seedlings followed by compound exposure assessed as insect control after 48 hr post compound treatment relative to untreated control; format: functional, organism-based

In the case of `CCCCCCCCCCCCC=CCC(=O)OC(COC(=O)CCCCCCCCCCCCCCC)COP(=O)(O)OCC(O)CO` (configuration not stated), the Activity (Aphis gossypii [1]) is reported as “Active” and the Activity (Aphis gossypii [2]) is reported as “Dose-dependent effect”.
